Assay results taken from the supplement of paper PMC10307832.

Columns and labels:
Assay in all cases: relative viability (nuclei count vs DMSO), 5 days (fraction); higher = more cells survive
NCI-H650 = tested on: NCI-H650
How it was run: (§1)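 Lung cancer cell lines in 1536-well plates got either a single drug or a fixed anchor-drug dose together with five library-drug doses (not always all listed) in √10 steps, by pin tool, on the day after seeding. Nuclei were counted after 5 days, and relative viability is the treated-to-vehicle ratio of nuclei counts. Values are medians of duplicate plates.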

NCI-H322M = tested on: NCI-H322M
How it was run: as §1

EPLC-272H = tested on: EPLC-272H
How it was run: as §1

SK-MES-1 = tested on: SK-MES-1
How it was run: as §1

NCI-H2023 = tested on: NCI-H2023
How it was run: as §1

NCI-H2087 = tested on: NCI-H2087
How it was run: as §1

LCLC-103H = tested on: LCLC-103H
How it was run: as §1

UMC-11 = tested on: UMC-11
How it was run: as §1

NCI-H1563 = tested on: NCI-H1563
How it was run: as §1

NCI-H1651 = tested on: NCI-H1651
How it was run: as §1

ChaGo-K-1 = tested on: ChaGo-K-1
How it was run: as §1

NCI-H520 = tested on: NCI-H520
How it was run: as §1

NCI-H1395 = tested on: NCI-H1395
How it was run: as §1

NCI-H1355 = tested on: NCI-H1355
How it was run: as §1

HCC-827 = tested on: HCC-827
How it was run: as §1

NCI-H1944 = tested on: NCI-H1944
How it was run: as §1

HCC-44 = tested on: HCC-44
How it was run: as §1

NCI-H1793 = tested on: NCI-H1793
How it was run: as §1

NCI-H2085 = tested on: NCI-H2085
How it was run: as §1

LCLC-97TM1 = tested on: LCLC-97TM1
How it was run: as §1

EMC-BAC-2 = tested on: EMC-BAC-2
How it was run: as §1

H3255 = tested on: H3255
How it was run: as §1

NCI-H2405 = tested on: NCI-H2405
How it was run: as §1

For O=C(O)c1ccc(-c2c[nH]c3ncc(-c4ccccc4)cc23)cc1C1CCCC1 + Nc1nc2[nH]cc(CCc3ccc(C(=O)N[C@@H](CCC(=O)O)C(=O)O)cc3)c2c(=O)[nH]1 [Pemetrexed] (partner 0.2 µM), which relative viability (NCI-H650; first compound 0.04 µM) is on record?
Its relative viability is 0.941.

What about the relative viability (NCI-H650; first compound 0.1265 µM) of the same compound?
The relative viability was 0.975.

And the relative viability (NCI-H650; first compound 0.4 µM)?
Its relative viability is 0.873.

What about the relative viability (NCI-H650; first compound 1.265 µM) of the same compound?
The relative viability was 0.782.

And the relative viability (NCI-H322M; first compound 0.04 µM)?
The relative viability was 0.632.

What about the relative viability (NCI-H322M; first compound 0.1265 µM) of the same compound?
The relative viability was 0.586.

And the relative viability (NCI-H322M; first compound 0.4 µM)?
The relative viability was 0.589.

And the relative viability (NCI-H322M; first compound 1.265 µM)?
Its relative viability is 0.547.

And the relative viability (EPLC-272H; first compound 0.04 µM)?
Its relative viability is 0.369.

And the relative viability (EPLC-272H; first compound 0.1265 µM)?
The relative viability was 0.336.

What about the relative viability (EPLC-272H; first compound 0.4 µM) of the same compound?
The relative viability was 0.279.

And the relative viability (EPLC-272H; first compound 1.265 µM)?
The relative viability was 0.251.

What about the relative viability (SK-MES-1; first compound 0.04 µM) of the same compound?
The relative viability was 0.959.

And the relative viability (SK-MES-1; first compound 0.1265 µM)?
The relative viability was 1.1.

And the relative viability (SK-MES-1; first compound 0.4 µM)?
The relative viability was 0.941.

What about the relative viability (SK-MES-1; first compound 1.265 µM) of the same compound?
Its relative viability is 0.722.

And the relative viability (NCI-H2023; first compound 0.04 µM)?
Its relative viability is 0.23.

What about the relative viability (NCI-H2023; first compound 0.1265 µM) of the same compound?
The relative viability was 0.271.

And the relative viability (NCI-H2023; first compound 0.4 µM)?
The relative viability was 0.28.

What about the relative viability (NCI-H2023; first compound 1.265 µM) of the same compound?
The relative viability was 0.237.

And the relative viability (NCI-H2087; first compound 0.04 µM)?
The relative viability was 0.576.

What about the relative viability (NCI-H2087; first compound 0.1265 µM) of the same compound?
Its relative viability is 0.652.

What about the relative viability (NCI-H2087; first compound 0.4 µM) of the same compound?
Its relative viability is 0.653.

What about the relative viability (NCI-H2087; first compound 1.265 µM) of the same compound?
The relative viability was 0.585.

And the relative viability (LCLC-103H; first compound 0.04 µM)?
Its relative viability is 0.487.

And the relative viability (LCLC-103H; first compound 0.1265 µM)?
The relative viability was 0.463.

What about the relative viability (LCLC-103H; first compound 0.4 µM) of the same compound?
The relative viability was 0.495.

And the relative viability (LCLC-103H; first compound 1.265 µM)?
Its relative viability is 0.481.

And the relative viability (UMC-11; first compound 0.04 µM)?
The relative viability was 0.703.

And the relative viability (UMC-11; first compound 0.1265 µM)?
The relative viability was 0.719.

And the relative viability (UMC-11; first compound 0.4 µM)?
Its relative viability is 0.693.

What about the relative viability (UMC-11; first compound 1.265 µM) of the same compound?
Its relative viability is 0.653.

What about the relative viability (NCI-H1563; first compound 0.04 µM) of the same compound?
Its relative viability is 0.698.

What about the relative viability (NCI-H1563; first compound 0.1265 µM) of the same compound?
Its relative viability is 0.948.

What about the relative viability (NCI-H1563; first compound 0.4 µM) of the same compound?
The relative viability was 0.789.

What about the relative viability (NCI-H1563; first compound 1.265 µM) of the same compound?
Its relative viability is 0.892.

And the relative viability (NCI-H1651; first compound 0.04 µM)?
Its relative viability is 0.482.

And the relative viability (NCI-H1651; first compound 0.1265 µM)?
The relative viability was 0.603.

What about the relative viability (NCI-H1651; first compound 0.4 µM) of the same compound?
The relative viability was 0.641.

What about the relative viability (NCI-H1651; first compound 1.265 µM) of the same compound?
The relative viability was 0.527.

What about the relative viability (ChaGo-K-1; first compound 0.04 µM) of the same compound?
The relative viability was 0.249.

And the relative viability (ChaGo-K-1; first compound 0.1265 µM)?
The relative viability was 0.255.

What about the relative viability (ChaGo-K-1; first compound 0.4 µM) of the same compound?
Its relative viability is 0.265.

What about the relative viability (ChaGo-K-1; first compound 1.265 µM) of the same compound?
Its relative viability is 0.264.

And the relative viability (NCI-H520; first compound 0.04 µM)?
Its relative viability is 0.789.

And the relative viability (NCI-H520; first compound 0.1265 µM)?
Its relative viability is 0.633.

What about the relative viability (NCI-H520; first compound 0.4 µM) of the same compound?
The relative viability was 0.655.

And the relative viability (NCI-H520; first compound 1.265 µM)?
The relative viability was 0.474.

What about the relative viability (NCI-H1395; first compound 0.04 µM) of the same compound?
The relative viability was 0.949.

What about the relative viability (NCI-H1395; first compound 0.1265 µM) of the same compound?
The relative viability was 1.14.

What about the relative viability (NCI-H1395; first compound 0.4 µM) of the same compound?
The relative viability was 0.774.

And the relative viability (NCI-H1395; first compound 1.265 µM)?
The relative viability was 0.858.

And the relative viability (NCI-H1355; first compound 0.04 µM)?
The relative viability was 0.991.

What about the relative viability (NCI-H1355; first compound 0.1265 µM) of the same compound?
Its relative viability is 1.13.

And the relative viability (NCI-H1355; first compound 0.4 µM)?
Its relative viability is 1.12.

What about the relative viability (NCI-H1355; first compound 1.265 µM) of the same compound?
Its relative viability is 0.756.

What about the relative viability (HCC-827; first compound 0.04 µM) of the same compound?
Its relative viability is 0.198.

And the relative viability (HCC-827; first compound 0.1265 µM)?
The relative viability was 0.28.

What about the relative viability (HCC-827; first compound 0.4 µM) of the same compound?
The relative viability was 0.287.

What about the relative viability (HCC-827; first compound 1.265 µM) of the same compound?
The relative viability was 0.163.

What about the relative viability (NCI-H1944; first compound 0.04 µM) of the same compound?
The relative viability was 0.692.

And the relative viability (NCI-H1944; first compound 0.1265 µM)?
The relative viability was 0.799.

And the relative viability (NCI-H1944; first compound 0.4 µM)?
Its relative viability is 0.69.

What about the relative viability (NCI-H1944; first compound 1.265 µM) of the same compound?
Its relative viability is 0.565.

What about the relative viability (HCC-44; first compound 0.04 µM) of the same compound?
The relative viability was 0.654.

What about the relative viability (HCC-44; first compound 0.1265 µM) of the same compound?
The relative viability was 0.578.

What about the relative viability (HCC-44; first compound 0.4 µM) of the same compound?
The relative viability was 0.68.

And the relative viability (HCC-44; first compound 1.265 µM)?
The relative viability was 0.598.

What about the relative viability (NCI-H1793; first compound 0.04 µM) of the same compound?
The relative viability was 0.83.

And the relative viability (NCI-H1793; first compound 0.1265 µM)?
Its relative viability is 1.19.

And the relative viability (NCI-H1793; first compound 0.4 µM)?
The relative viability was 0.865.

What about the relative viability (NCI-H1793; first compound 1.265 µM) of the same compound?
Its relative viability is 0.882.

And the relative viability (NCI-H2085; first compound 0.04 µM)?
The relative viability was 0.821.

And the relative viability (NCI-H2085; first compound 0.1265 µM)?
The relative viability was 0.951.

What about the relative viability (NCI-H2085; first compound 0.4 µM) of the same compound?
The relative viability was 0.882.

And the relative viability (NCI-H2085; first compound 1.265 µM)?
Its relative viability is 0.654.

What about the relative viability (LCLC-97TM1; first compound 0.04 µM) of the same compound?
Its relative viability is 0.196.

And the relative viability (LCLC-97TM1; first compound 0.1265 µM)?
The relative viability was 0.204.

What about the relative viability (LCLC-97TM1; first compound 0.4 µM) of the same compound?
Its relative viability is 0.157.

And the relative viability (LCLC-97TM1; first compound 1.265 µM)?
The relative viability was 0.153.

And the relative viability (EMC-BAC-2; first compound 0.04 µM)?
The relative viability was 0.451.

And the relative viability (EMC-BAC-2; first compound 0.1265 µM)?
The relative viability was 0.465.

What about the relative viability (EMC-BAC-2; first compound 0.4 µM) of the same compound?
The relative viability was 0.479.

And the relative viability (EMC-BAC-2; first compound 1.265 µM)?
Its relative viability is 0.451.

What about the relative viability (H3255; first compound 0.04 µM) of the same compound?
Its relative viability is 0.485.

And the relative viability (H3255; first compound 0.1265 µM)?
Its relative viability is 0.58.

What about the relative viability (H3255; first compound 0.4 µM) of the same compound?
The relative viability was 0.622.

What about the relative viability (H3255; first compound 1.265 µM) of the same compound?
The relative viability was 0.582.

And the relative viability (NCI-H2405; first compound 0.04 µM)?
The relative viability was 1.05.

And the relative viability (NCI-H2405; first compound 0.1265 µM)?
The relative viability was 1.15.

And the relative viability (NCI-H2405; first compound 0.4 µM)?
Its relative viability is 0.959.

And the relative viability (NCI-H2405; first compound 1.265 µM)?
The relative viability was 0.648.
